# Laboratory results: US20260102413A1, “TREATING PAIN ASSOCIATED WITH CENTRAL SENSITIZATION” (Medicon Pharmaceuticals, Inc., priority 2022, published 2026)
# Columns and labels:
# [1] = tested on: mice with paclitaxel-induced neuropathic pain (CIPN); experiment: von Frey paw withdrawal threshold (mechanical allodynia), paclitaxel-induced CIPN / central sensitization, treatment of established pain, topical test compounds; format: in vivo, mouse; conditions: for PWT: naproxen 2.4%, aspirin […], ibuprofen 2.5% topical both hind paws 3x/day 14 days; for Paw-withdrawal threshold, g Mean ± SEM, Day 0: group value after paclitaxel, before study drug
# Description: Paw withdrawn, licking or shaking were considered positive responses.
# (§1) The first doses were administered 5 days after the last administration of paclitaxel (i.e., at day 0).
# The PWT test was performed prior to the administration of paclitaxel (day −8) to establish the threshold in mice without neuropathic pain associated with CIPN (the value shown is an average of the PWT in all groups at day −8).
# Pain associated with CIPN was established in line with the experiments disclosed herein. Mice were treated with naproxen 2.4% (equimolar to PN 5%), aspirin 1.7% (equimolar to PA2 5%); or ibuprofen 2.5% (equimolar to PI 5%) or vehicle applied topically to both hind paws 3×/day for 14 days.
# CIPN was induced in mice with chemotherapeutic agents using established protocols (Carozzi et al, 2010; Currie et al, 2019; Eldridge et al, 2020).
# The first doses were administered 1 day after the last administration of paclitaxel (i.e., at day 0).
# as §1
# The PWT test was performed on day 21, at the end of the experiment, but was also additionally determined on day 14 for LXIX.
# [2] = tested on: mice with paclitaxel-induced CIPN; experiment: thermal allodynia (paw withdrawal latency, radiant heat), paclitaxel CIPN model; format: in vivo, mouse; conditions: NO-sulindac, HS-sulindac 5% topical 3x/day
# Description: Group 3: paclitaxel pluse sulindac (n=8)
# Thermal allodynia was also determined for the mice study groups below (with 8 mice per group): • 1. Group 1: naïve mice (i.e. no paclitaxel) • 2. Group 2: paclitaxel only • 3. Group 3: paclitaxel plus vehicle • 4. Group 4: paclitaxel plus NO-sulindace • 5. Group 5: paclitaxel plus thiol-sulindac
# [3] = tested on: mice with paclitaxel-induced CIPN; experiment: von Frey PWT, paclitaxel CIPN model, orally administered compounds; format: in vivo, mouse; conditions: for PWT, g: 100 mg/kg oral gavage 3x/day; for PWT: oral gavage 3x/day 6 days: ibuprofen 40, PI 80, PIA 80, PGI 60 mg/kg, day 6
# From the text: CIPN was induced in mice with chemotherapeutic agents using established protocols (Carozzi et al, 2010; Currie et al, 2019; Eldridge et al, 2020). […] This dosing regimen of paclitaxel produces pain associated with CIPN with time courses that are similar to those of pain after paclitaxel administration in cancer patients.
# Group 1: naïve mice (i.e. no paclitaxel, n=8) • 2. Group 2: paclitaxel only (n=8) • 3. Group 3: paclitaxel plus vehicle (n=8) • 4. […] Group 5: paclitaxel pluse sulindac (n=8)
# The PWT test was performed on day 7.
# Phospho-naproxen (PN) and naproxen were given by oral gavage, three times a day for 7 days. Their doses were as follows: PN, 65 mg/kg; naproxen, 35 mg/kg (equimolar to PN). The response of mechanical allodynia to phospho-naproxen (PN) and naproxen was tested on day 7.
# (§2) This dosing regimen of paclitaxel produces pain associated with CIPN with time courses that are similar to those of pain after paclitaxel administration in cancer patients.
# Phospho-ibuprofen (PI) (Formula III), phospho-glycerol-ibuprofen (PGI) (Formula LXXI), phospho-ibuprofen-amide (PIA) (Formula XI), and ibuprofen were given by oral gavage, three times a day for 6 days. Their doses were as follows: ibuprofen, 40 mg/kg; PI, 80 mg/kg; PIA, 80 mg/kg; all three were equimolar.
# The response of mechanical allodynia to these compounds was tested on day 6, using the PWT test.
# as §2
# NO-sulindac (Formula XLIV), HS-sulindac (Formula XXXIV), platinum-sulindac (Formula LXVII), and NOSH-1 (Formula LIX) were given by oral gavage, three times a day throughout the study period. Their doses were all 100 mg/kg.
# The response of mechanical allodynia to these compounds was tested on the days set out in the table below, via the PWT test.
# LXIX was given by oral gavage, once a day for 14 days at a dose of 100 mg/kg.
# The response of mechanical allodynia to these compounds was tested on day 14, via the PWT test.
# [4] = tested on: mice with chronic constriction injury (PTPN); experiment: von Frey PWT, CCI model of PTPN, orally administered compounds; format: in vivo, mouse; conditions: for PWT, g Mean ± SEM: oral 3x/day 14 days: PI 80, PIA 80, ibuprofen 40 mg/kg, day 14
# Description: Phospho-ibuprofen (PI) (Formula III), phospho-ibuprofen-amide (PIA) (Formula XI), ibuprofen and vehicle control were all administered orally, three times a day for 14 days. Their doses were as follows: PI 80 mg/kg, PIA 80 mg/kg, ibuprofen 40 mg/kg (all three are equimolar). […] Group 1: vehicle (n=5-8) • 2. Group 2: ibuprofen (n=5-8) • 3. Group 3: phospho-ibuprofen (PI) (n=5-8) • 4. Group 4: phospho-ibuprofen-amide (PIA) (n=5-8)
# [5] = tested on: mice with chronic constriction injury of the left sciatic nerve (PTPN); experiment: von Frey PWT, chronic constriction injury (CCI) model of PTPN, topical compounds; format: in vivo, mouse; conditions: for PWT, g mean ± SEM, Day 14: NOSH-1, LXIX, LXX 5% on left hind paw 3x/day 14 days; for PWT, g Mean ± SEM, Baseline: group value following ligation, prior to treatment
# Description: The PWT test was performed following ligation, but prior to treatment to determine baseline values. The PWT was then further measured on day 14.
# [6] = tested on: mice with NTG-induced migraine; experiment: von Frey PWT, NTG-induced migraine model, oral or intraperitoneal compounds; format: in vivo, mouse; conditions: oral 30 min after NTG: PS 50, sulindac 33, PN 65, naproxen 35 mg/kg; 30 min after administration
# Description: Phosphonaproxen (Formula VIII), and its parent compound, naproxen, were administered orally to each mouse group. All compounds were administered at equimolar doses. In particular, phosponaproxen was administered at 65 mg/kg, and naproxen was administered at 35 mg/kg, 30 minutes after NTG administration. The response of mechanical allodynia was tested 30 minutes after administration.
# [7] = tested on: mice with NTG-induced chronic migraine; experiment: von Frey PWT, NTG-induced chronic migraine model; format: in vivo, mouse; conditions: for PWT, g Mean ± SEM, Day 12 (pre-treatment): day 12 after first NTG dose, before compound administration; for PWT, g Mean ± SEM, Baseline: group baseline prior to NTG (Example 17)
# From the text: The NTG-induced chronic migraine model was used as described previously.
# [8] = tested on: STZ-diabetic rats; format: in vivo, rat; conditions: rat, in vivo
# From the text: The animal model corresponds to that used for Example 4, but using a prevention protocol. As in Example 4, the outcome measure, determining the effect of the treatment on the prevention of mechanical allodynia, was the PWT test, using von Frey filaments. The measurements were taken at day −3, before treatment or induction of neuropathic pain associated with DPN, and again at the end of the study period (day 28).
# The rats were randomised into treatment groups as follows, all having an average body weight of about 225 g. • 1. Group 1: naïve rats (n=6) • 2. Group 2: STZ only (n=8) • 3. Group 3: STZ plus vehicle (n=8) • 4. […] Group 5: STZ plus sulindac 0.7% (n=8) • 6. Group 6: STZ plus lidocaine cream 5% (n=8)
# Each treatment group was subjected to a PWT assessment at day −3 in order to determine the baseline of mechanical allodynia.
# For those rats in the lidocaine treatment group, lidocaine cream was applied only once to both hind paws of the rats 30 min before the final PWT measurement on day 28. On day 0, neuropathic pain associated with DPN was induced with the administration of STZ, and the blood glucose was checked on day 3.
# [9] = drug levels in proximal and distal half of the sciatic nerve after topical PS; format: in vivo, mouse; conditions: mouse, in vivo
# Description: In a separate experiment we studied 8 mice with paclitaxel-induced PN treated with PS 8% ointment 3×/d for 2 wks. Mice were euthanized as above 30 minutes after the last dose of PS. From these mice we harvested both sciatic nerves dividing each into proximal and distal halves, and combined the corresponding halves of every two animals for assay of drug levels.
compound,measurement,setting,value
"CC(=O)Oc1ccccc1C(=O)O [Aspirin, aspirin, reference compound]",PWT,[1],0.69 ± 0.10 g
CC1=C(CC(=O)Oc2ccc(-c3cc(=S)ss3)cc2)c2cc(F)ccc2/C1=C\c1ccc([S+](C)[O-])cc1 (stereo not shown) [HS-sulindac],"PWT, g Mean ± SEM","[1]; paclitaxel 8 mg/kg x4, 5% topical both hind paws 3x/day 17 days",0.99 ± 0.15 g
same,"PWL, sec Mean ± SEM",[2],9.9 ± 0.6 s
same,"PWT, g",[3]; D 2,D 2 = 0.90 ± 0.09 g
same,"PWT, g",[3]; D 4,D 4 = 1.10 ± 0.05 g
same,"PWT, g",[3]; D 13,D 13 = 1.23 ± 0.06 g
"CC(C)Cc1ccc(C(C)C(=O)O)cc1 (stereo not shown) [Ibuprofen, ibuprofen, reference compound]",PWT,[1],0.60 ± 0.08 g
same,PWT,[3],0.53 ± 0.05 g
same,"PWT, g Mean ± SEM",[4],0.58 ± 0.02 g
COc1ccc2cc(C(C)C(=O)Oc3ccc(C(N)=S)cc3)ccc2c1 (stereo not shown) [LXIX],"PWT, g Mean ± SEM","[1]; LXIX 5% topical both hind paws 3x/day, Day 14",Day 14 = 0.86 ± 0.10 g
same,"PWT, g Mean ± SEM","[1]; LXIX 5% topical both hind paws 3x/day, Day 21",Day 21 = 1.20 ± 0.14 g
same,"PWT, g Mean ± SEM","[3]; LXIX 100 mg/kg oral gavage once a day 14 days, day 14",0.93 ± 0.14 g
same,"PWT, g mean ± SEM, Day 14",[5],1.35 ± 0.23 g
same,"PWT, g Mean ± SEM, Baseline",[5],0.55 ± 0.09 g
CC(C(=O)Oc1ccc(C(N)=S)cc1)c1cccc(C(=O)c2ccccc2)c1 (stereo not shown) [LXX],"PWT, g mean ± SEM, Day 14",[5],1.28 ± 0.29 g
same,"PWT, g Mean ± SEM, Baseline",[5],0.58 ± 0.07 g
"O=C(CCCO[N+](=O)[O-])Oc1ccccc1C(=O)Oc1ccc(-c2cc(=S)ss2)cc1 [NOSH1, NOSH-aspirin]","PWT, g",[3]; D 2,D 2 = 0.93 ± 0.17 g
same,"PWT, g",[3]; D 4,D 4 = 1.39 ± 0.15 g
same,"PWT, g",[3]; D 13,D 13 = 1.33 ± 0.11 g
same,"PWT, g mean ± SEM, Day 14",[5],2.00 ± 0.00 g
same,"PWT, g Mean ± SEM, Baseline",[5],0.60 ± 0.00 g
"COc1ccc2cc([C@H](C)C(=O)O)ccc2c1 [Naproxen, naproxen, reference compound]",PWT,[1],0.61 ± 0.11 g
same,"PWT, g Mean ± SEM","[3]; paclitaxel 8 mg/kg x4, oral gavage 3x/day 7 days: PS 50, sulindac 33, PN 65, naproxen 35 mg/kg, day 7",0.53 ± 0.05 g
same,"PWT, g Mean ± SEM",[6],0.56 ± 0.02 g
"CCOP(=O)(OCC)OCC(COC(=O)C(C)c1ccc(CC(C)C)cc1)OP(=O)(OCC)OCC (stereo not shown) [PGI, phospho-glycerol-ibuprofen]",PWT,[3],1.60 ± 0.11 g
"CCOP(=O)(OCC)OCC(CNC(=O)C(C)c1ccc(CC(C)C)cc1)OP(=O)(OCC)OCC (stereo not shown) [PGIA, phospho-glycerol-ibuprofen-amide]","PWT, g Mean ± SEM","[1]; mouse, in vivo",1.70 ± 0.25 g
"CCOP(=O)(OCC)OCCCCOC(=O)C(C)c1ccc(CC(C)C)cc1 (stereo not shown) [PI, phospho-ibuprofen]","Paw-withdrawal threshold, g Mean ± SEM, Day 0",[1],0.64 ± 0.05 g
same,"Paw-withdrawal threshold, g Mean ± SEM, Day 14","[1]; mouse, in vivo",0.8 ± 0.07 g
same,PWT,[3],1.41 ± 0.23 g
same,"PWT, g Mean ± SEM","[5]; PI, PN 5% on left hind paw 3x/day 14 days, day 14",1.54 ± 0.19 g
same,"PWT, g Mean ± SEM",[4],0.82 ± 0.07 g
"CCOP(=O)(OCC)OCCCCNC(=O)C(C)c1ccc(CC(C)C)cc1 (stereo not shown) [PIA, phosphoibuprofen-amide]",PWT,[3],1.79 ± 0.40 g
same,PWT,"[4]; PIA 80 mg/kg oral 3x/day, day 5",1.43 ± 0.19 g
same,"PWT, g Mean ± SEM",[4],1.74 ± 0.12 g
"CNS(=O)(=O)Cc1ccc2[nH]cc(CCN(C)C)c2c1 [Sumatriptan, sumatriptan]","PWT, g Mean ± SEM, Day 12 (pre-treatment)",[7],0.57 ± 0.02 g
same,"PWT, g Mean ± SEM, Baseline",[7],1.90 ± 0.06 g
"CC1(C)O[C@@H]2[C@@H](CO[C@@]3(COS(N)(=O)=O)OC(C)(C)O[C@@H]23)O1 [Topiramate, topiramate]","PWT, g Mean ± SEM, Day 12 (pre-treatment)",[7],0.60 ± 0.00 g
same,"PWT, g Mean ± SEM, Baseline",[7],2.40 ± 0.24 g
CCOP(=O)(OCC)OCC(COC(=O)c1ccccc1OC(C)=O)OP(=O)(OCC)OCC (stereo not shown) [glycero-phospho-aspirin II],"Paw-withdrawal threshold, g Mean ± SEM, Day 0",[1],0.66 ± 0.05 g
same,"Paw-withdrawal threshold, g Mean ± SEM, Day 14","[1]; mouse, in vivo",0.69 ± 0.06 g
CCN(CC)CC(=O)Nc1c(C)cccc1C [lidocaine],"von Frey, gm mean ± SEM",[8],34.3 ± 1.6 gm
CC1=C(CC(=O)O)c2cc(F)ccc2/C1=C\c1ccc(S(C)(=O)=O)cc1 [sulindac sulfone],Fold difference distal vs proximal,[9],4.5
NO-aspirin,"PWT, g Mean ± SEM","[1]; paclitaxel 8 mg/kg x4, 5% topical both hind paws 3x/day, Day 8",1.47 ± 0.08 g
platinum-sulindac [Pt-sulindac],"PWT, g",[3]; D 2,D 2 = 1.01 ± 0.17 g
same,"PWT, g",[3]; D 4,D 4 = 1.03 ± 0.19 g
same,"PWT, g",[3]; D 13,D 13 = 1.34 ± 0.07 g
